Measured values as given in patent US8946215B2, “Hydroxy-substituted imidazo[1,2-a]pyridinecarboxamides and their use” (Bayer Pharma Aktiengesellschaft, priority 2012, dated 2015).
Counter-ions that a name gives are not always drawn.

Biological target: T1, recombinant guanylate cyclase reporter cell line (Rattus norvegicus, UniProt P19686+P20595)
T1 construct: expressed in transfected cells
T1 sequence (P20595 1-619): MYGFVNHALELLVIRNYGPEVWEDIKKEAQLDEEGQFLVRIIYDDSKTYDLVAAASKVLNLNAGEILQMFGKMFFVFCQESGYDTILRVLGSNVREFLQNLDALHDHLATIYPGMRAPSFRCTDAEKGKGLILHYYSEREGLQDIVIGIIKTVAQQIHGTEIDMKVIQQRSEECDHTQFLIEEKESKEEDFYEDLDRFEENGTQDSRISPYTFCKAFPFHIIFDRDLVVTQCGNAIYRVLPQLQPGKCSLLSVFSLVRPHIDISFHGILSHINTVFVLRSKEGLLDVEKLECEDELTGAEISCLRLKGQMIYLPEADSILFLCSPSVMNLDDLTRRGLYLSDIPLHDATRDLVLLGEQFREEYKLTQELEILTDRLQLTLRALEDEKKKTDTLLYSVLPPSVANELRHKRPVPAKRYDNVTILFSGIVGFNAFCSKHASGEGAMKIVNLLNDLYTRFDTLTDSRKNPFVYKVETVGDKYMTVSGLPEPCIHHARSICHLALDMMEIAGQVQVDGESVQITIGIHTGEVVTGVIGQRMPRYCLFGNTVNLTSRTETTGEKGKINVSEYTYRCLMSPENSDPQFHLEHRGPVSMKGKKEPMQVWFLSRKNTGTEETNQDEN
T1 sequence (P19686 1-690): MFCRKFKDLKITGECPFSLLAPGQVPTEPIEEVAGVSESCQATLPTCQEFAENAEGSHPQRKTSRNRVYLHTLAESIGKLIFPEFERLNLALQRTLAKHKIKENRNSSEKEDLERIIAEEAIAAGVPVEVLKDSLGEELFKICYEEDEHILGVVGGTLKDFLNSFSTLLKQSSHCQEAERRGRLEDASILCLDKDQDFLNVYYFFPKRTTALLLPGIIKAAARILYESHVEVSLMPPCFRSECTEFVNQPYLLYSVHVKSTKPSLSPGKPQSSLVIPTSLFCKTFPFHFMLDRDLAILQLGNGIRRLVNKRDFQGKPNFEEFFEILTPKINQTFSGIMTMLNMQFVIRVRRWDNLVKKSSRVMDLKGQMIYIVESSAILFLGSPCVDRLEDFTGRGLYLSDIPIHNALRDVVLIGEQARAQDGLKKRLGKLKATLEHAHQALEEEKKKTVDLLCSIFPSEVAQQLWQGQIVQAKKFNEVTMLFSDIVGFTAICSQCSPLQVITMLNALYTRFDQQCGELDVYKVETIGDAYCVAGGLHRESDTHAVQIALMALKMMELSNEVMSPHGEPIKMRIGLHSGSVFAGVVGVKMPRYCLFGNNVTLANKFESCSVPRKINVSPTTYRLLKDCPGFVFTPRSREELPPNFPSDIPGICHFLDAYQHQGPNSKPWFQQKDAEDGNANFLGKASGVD
Assay: Action on recombinant guanylate cyclase reporter cell line
Type: cell-based
Conditions: in some cases mean values obtained from individual determinations
Outline: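 Cell-based reporter assay with recombinant guanylate cyclase expressed in a reporter cell line, per a published method. Activity reported as minimal effective concentration (MEC), in some cases as the mean of individual determinations.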

| Compound | MEC (minimal effective concentration) [µM] |
| --- | --- |
| CCCC[C@H](CO)NC(=O)c1c(C)nc2c(OCCC(C)C)cccn12 [Example 159, N-[(2R)-1-Hydroxyhexan-2-yl]-2-methyl-8-(3-methylbutoxy)imidazo[1,2-a]pyridine-3-carboxamide] | 1.0 |
| Cc1nc2c(OCC3CCCCC3)cccn2c1C(=O)N[C@H]1CCC[C@@H]1O (racemic) [Example 71, (rac)-8-(cyclohexylmethoxy)-N-[trans-2-hydroxycyclopentyl]-2-methylimidazo[1,2-a]-pyridine-3-carboxamide] | 0.1 |
| CC[C@@H](CO)NC(=O)c1c(C)nc2c(OCC3CCCCC3)cccn12 [Example 88, 8-(cyclohexylmethoxy)-N-[(2S)-1-hydroxybutan-2-yl]-2-methylimidazo[1,2-a]pyridine-3-carboxamide] | 1.0 |
| CC[C@H](CO)NC(=O)c1c(C)nc2c(OCc3cccc(F)c3F)cccn12 [Example 44, 8-[(2,3-difluorobenzyl)oxy]-N-[(2R)-1-hydroxybutan-2-yl]-2-methylimidazo[1,2-a]-pyridine-3-carboxamide] | 0.3 |
| Cc1nc2c(OCc3cccc(Cl)c3Cl)cccn2c1C(=O)NC(CO)CO [Example 49, 8-[(2,3-dichlorobenzyl)oxy]-N-(1,3-dihydroxypropan-2-yl)-2-methylimidazo[1,2-a]-pyridine-3-carboxamide] | 2.0 |
| CCCC[C@H](CO)NC(=O)c1c(C)nc2c(OCc3c(Cl)cccc3Cl)cccn12 [Example 8] | 0.3 |
| Cc1nc2c(OCC3CCCCC3)cccn2c1C(=O)NCCO [Example 76, 8-(cyclohexylmethoxy)-N-(2-hydroxyethyl)-2-methylimidazo[1,2-a]pyridine-3-carboxamide formate] | 0.3 |
| CCCC[C@H](CO)NC(=O)c1c(C)nc2c(OCc3c(F)cccc3F)cc(Cl)cn12 [Example 131, 6-chloro-8-[(2,6-difluorobenzyl)oxy]-N-[(2R)-1-hydroxyhexan-2-yl]-2-methylimidazo[1,2-a]pyridine-3-carboxamide] | 0.01 |
| Cc1nc2c(OCC3CCC3)cccn2c1C(=O)NCCC1(O)CCCC1 [Example 97, 8-(cyclobutylmethoxy)-N-[2-(1-hydroxycyclopentyl)ethyl]-2-methylimidazo[1,2-a]pyridine-3-carboxamide] | 1.0 |
| CCCC[C@H](CO)NC(=O)c1c(C)nc2c(OCc3c(F)cccc3F)cc(CC)cn12 [Example 60, 8-[(2,6-difluorobenzyl)oxy]-6-ethyl-N-[(2R)-1-hydroxyhexan-2-yl]-2-methylimidazo[1,2-a]pyridine-3-carboxamide] | 0.1 |
| CCCC[C@H](CO)NC(=O)c1c(C)nc2c(OCc3c(C)cccc3C)cccn12 [Example 13] | 3.0 |
| CC[C@H](CO)NC(=O)c1c(C)nc2c(OCc3ccccc3)cccn12 [Example 17, 8-(Benzyloxy)-N-[(2R)-1-hydroxybutan-2-yl]-2-methylimidazo[1,2-a]pyridine-3-carboxamide] | 3.0 |
| CCCC[C@H](CO)NC(=O)c1cnc2c(OCc3c(F)cccc3F)cccn12 [Example 62, 8-[(2,6-difluorobenzyl)oxy]-N-[(2R)-1-hydroxyhexan-2-yl]imidazo[1,2-a]pyridine-3-carboxamide] | 0.3 |
| C=CCC(CO)NC(=O)c1c(C)nc2c(OCC3CCCCC3)cccn12 (racemic) [Example 70, (rac)-8-(cyclohexylmethoxy)-N-(1-hydroxypent-4-en-2-yl)-2-methylimidazo[1,2-a]pyridine-3-carboxamide] | 0.1 |

Results, then the compound that gave them:

| MEC (minimal effective concentration) [µM] | Compound |
| --- | --- |
| 0.1 | Cc1nc2c(OCc3c(F)cccc3F)cccn2c1C(=O)NCC(O)C(F)(F)F (single isomer, unassigned; ent-8) [Example 109, ent-8-[(2,6-Difluorobenzyl)oxy]-2-methyl-N-(3,3,3-trifluoro-2-hydroxypropyl)imidazo[1,2-a]-pyridine-3-carboxamide] |
| 3.0 | Cc1nc2c(OCc3c(F)cccc3F)cccn2c1C(=O)NCC(C)(C)CO [Example 41, 8-[(2,6-difluorobenzyl)oxy]-N-(3-hydroxy-2,2-dimethylpropyl)-2-methylimidazo[1,2-a]-pyridine-3-carboxamide] |
| 0.03 | Cc1nc2c(OCc3c(F)cccc3F)cccn2c1C(=O)NC(CO)CCCC(F)(F)F (single isomer, unassigned; ent-8) [Example 123, ent-8-[(2,6-Difluorobenzyl)oxy]-2-methyl-N-(6,6,6-trifluoro-1-hydroxyhexan-2-yl)imidazo[1,2-a]-pyridine-3-carboxamide] |
| 0.3 | Cc1nc2c(OCc3c(F)cccc3F)cccn2c1C(=O)NC(CO)c1ccccn1 (racemic) [Example 119, rac-8-[(2,6-difluorobenzyl)oxy]-N-[2-hydroxy-1-(pyridin-2-yl)ethyl]-2-methylimidazo[1,2-a]-pyridine-3-carboxamide] |
| 0.03 | Cc1nc2c(OCc3c(F)cccc3F)cccn2c1C(=O)NC(CCCC(F)(F)F)C(C)(C)O (racemic) [Example 150, rac-8-[(2,6-difluorobenzyl)oxy]-2-methyl-N-(7,7,7-trifluoro-2-hydroxy-2-methylheptan-3-yl)imidazo[1,2-a]pyridine-3-carboxamide] |
| 3 | Cc1cc(OCc2ncccc2F)c2nc(C)c(C(=O)NCC(O)C(F)(F)F)n2c1 (racemic) [Example 197, rac-8-[(3-fluoropyridin-2-yl)methoxy]-2,6-dimethyl-N-(3,3,3-trifluoro-2-hydroxypropyl)imidazo[1,2-a]pyridine-3-carboxamide] |
| 0.3 | Cc1nc2c(OCc3c(F)cccc3F)cccn2c1C(=O)NCCCCO [Example 23] |
| 0.3 | Cc1nc2c(OCc3c(F)cccc3F)cccn2c1C(=O)NCC(O)C(F)(F)F (racemic) [Example 106, rac-8-[(2,6-difluorobenzyl)oxy]-2-methyl-N-(3,3,3-trifluoro-2-hydroxypropyl)imidazo[1,2-a]pyridine-3-carboxamide trifluoroacetate] |
| 0.3 | Cc1nc2c(OCc3c(F)cccc3F)cccn2c1C(=O)NC(CO)c1cccnc1 (racemic) [Example 124, rac-8-[(2,6-Difluorobenzyl)oxy]-N-[2-hydroxy-1-(pyridin-3-yl)ethyl]-2-methylimidazo[1,2-a]-pyridine-3-carboxamide] |
